Tested on: Djndk, Djmpka, DjAdb-Ba
Test: Gene expression in regenerating planaria blastemas (real-time PCR)
Type: in vivo, Dugesia japonica
Conditions: 100 nM, 2 days post injury
Experimental: Whole mount in situ hybridization, real-time PCR and dsRNA synthesis: Regenerating blastemas were obtained from planaria after surgical injury and placed in Trizol (Ambion). RNA was isolated following manufacturer's instructions and cDNA was synthesized essentially as in (16) using random hexamers, Oligo(dt)20 and Superscript III (Invitrogen), Relative quantitative analysis for each gene product was carried out using an ABI 7900ht fast real-time PCR machine (Applied Biosystems). DjGapdh—Forward: […] (SEQ ID NO. 1); Reverse: […] (SEQ ID NO. 2). Djsfpr-A—Forward: […] (SEQ ID NO. 3); Reverse: […] (SEQ ID NO. 4). Djndk—Forward: […] (SEQ ID NO. 5); Reverse: […] (SEQ ID NO. 6). DjmpkA—Forward: […] (SEQ ID NO. 7); Reverse: […] (SEQ ID NO. 8). DfAdb-Ba—Forward: […] (SEQ ID NO. 9); Reverse: […] (SEQ ID NO. 10). DjGst—Forward: […] (SEQ ID NO. 11); Reverse: […] (SEQ ID NO. 12). The constitutively transcribed housekeeping gene, GAPDH, was employed to normalized target gene expression levels as in (16).
Planaria regeneration: Planaria (Dugesia japonica; Dj) were kept in water (Poland Spring) at 18° C. […] Tissue regeneration was assessed as in (12). […] The extent of tissue regeneration during a 6-day period for D. japonica was determined using captured images of the regenerating blastemas at regular intervals (24 h). These images were analyzed using ImageJ software. […]

Compound	genes involved in head regeneration
CCC=CCC=CCC(O)C(C=CC=CC=CCC=CCCC(=O)O)SCC(N)C(=O)NCC(=O)O (centres unmarked) [SCII, 13-cysteinylglycinyl, 14-hydroxy-docosahexaenoic acid]	upregulated
13-glutathionyl, 14-hydroxy-docosahexaenoic acid [SCI]	upregulated
